According to patent US8557737B2, “Methods of altering poppy characteristics” (priority 2005, dated 2013):
Like-named read-outs stand apart in the source and are kept apart here.

Key:
[1] = tested on: poppy crops; set-up: species or system Papaver somniferum; conditions: in vivo
[2] = tested on: poppy crops; assay: Example 3: field trial, metsulfuron-methyl alone or tank-mixed with Sunny at early-mid run-up, morphine crop; type: in vivo, Papaver somniferum; conditions: COMPOUND 1 120 MG/HA + PULSE .2 % V/V at E-MRU
Experimental: (§1) All trials were conducted on poppy crops. Seed was treated with Thiram (5.6 g of Thiram 800/kg seed) and Apron (4 g/kg) and sown at a rate of approximately 750 g/ha. Fertilisers were applied at sowing. Most commonly, either 50:50 lime:superphosphate/triple superphosphate at 125 kg/ha, or lime:superphosphate at 250 kg/ha, were mixed with seed and drilled at a depth of 15 mm. In the same operation, NPK (nitrogen:phosphorus:potassium), at various rates, was banded 75 mm below the seed, unless otherwise stated. All crops were subjected to herbicide sprays for weed control, fungicide sprays for disease control, insecticide sprays if appropriate and were irrigated as required.
(§2) All spray applications were made with a precision sprayer, using Silvan Lurmark flat-fan, low-drift nozzles (LD110-0015). Spray equipment was calibrated to deliver 153 L water/ha.
(§3) At harvest, a 2 m×4 m quadrat was placed in each plot (3 m×6 m, unless otherwise stated) and capsules hand-picked from this area. Capsules were broken up, seed and capsule material separated and weighed. Capsule moisture readings were taken with a moisture meter. Alkaloid yield data were calculated on Pesticide Research Manager (version 5 for Windows) using the formulae below. Briefly, capsule weight was adjusted for moisture to a dry weight, 5% of seed weight was added to this (this amount of capsule material regularly occurs in seed samples after processing) to give a capsule weight per plot. Seed weight was adjusted to 95% of crude weight. Straw weights were determined by multiplying dry capsule weight by 1.3 (estimated amount of stem material in a commercial harvest) and adjusted to 11% moisture. When Lontrel was applied to crops exact capsule and seed weight data were entered. Analyses of variance and a Multiple Range Test were performed on data using Pesticide Research Manager. Significant differences (P=0.05) between treatments are denoted by different lower case letters adjacent to treatment means in the tables of results.
Trial to evaluate metsulfuron-methyl (Compound 1) (120 mg/ha) applied alone, or tank-mixed with Sunny (1 L/ha=50 g/ha), in a morphine crop. Treatments were applied to crop at early-mid run-up, plant heights were measured at green capsule stage.

[3] = tested on: poppy crops; assay: Example 4: field trial, metsulfuron-methyl alone or tank-mixed with Sunny at early run-up, morphine crop; type: in vivo, Papaver somniferum; conditions: COMPOUND 1 120 MG/HA + PULSE .2 % v/v at ERU
Experimental: as §1, §2, §3
Trial to evaluate metsulfuron-methyl (Compound 1) (120 mg/ha) alone, or tank-mixed with Sunny (1 L/ha), in a morphine crop. Treatments were applied to crop at early run-up, plant heights were measured at early green capsule stage.

[4] = tested on: poppy crops; assay: Example 9: field trial, mesosulfuron-methyl and metsulfuron-methyl, morphine crop; type: in vivo, Papaver somniferum; conditions: COMPOUND 1 120 MG/HA + PULSE .2 % V/V at GC, LRU and EBE
Experimental: as §1, §2
as §3, with “Manager.” for “Manager. Significant differences (P=0.05) between treatments are denoted by different lower case letters adjacent to treatment means in the tables of results.”
Trial to evaluate applications of mesosulfuron-methyl (Compound 2) and metsulfuron-methyl (Compound 1), in a morphine crop. Treatment sprays were applied to crop at ground cover, late run-up and early bud-emergence, respectively. Plant heights were measured at green capsule stage, and lodging assessed on the day of capsule harvest.

[5] = tested on: poppy crops; assay: Example 10: field trial, triasulfuron and metsulfuron-methyl, morphine crop; type: in vivo, Papaver somniferum; conditions: COMPOUND 1 120 MG/HA + PULSE .2 % V/V at GC, RU and BE
Experimental: as §1, §2, §3
[…] Treatment sprays were applied to crop at ground cover, mid run-up and bud-emergence, respectively.

[6] = tested on: poppy crops; assay: Example 11: field trial, metsulfuron-methyl, Sunny and metsulfuron-methyl+Sunny at row cover, early run-up, bud-emergence/early hook, morphine crop; type: in vivo, Papaver somniferum; conditions: Trt 4: COMPOUND 1 120 MG/HA + PULSE .2% V/V at RC, ERU and BE/EH
Experimental: as §1, §2, §3
Trial to evaluate applications of metsulfuron-methyl (Compound 1), Sunny and metsulfuron-methyl+Sunny, in a morphine crop. Treatment sprays were applied to crop at row cover, early run-up and bud-emergence/early hook. Plant heights were measured at green capsule stage.

[7] = tested on: poppy crops; assay: Example 18: field trial, triasulfuron, mesosulfuron-methyl and metsulfuron-methyl at row cover, mid run-up and early hook, morphine crop; type: in vivo, Papaver somniferum; conditions: Trt 2: COMPOUND 1 120 MG/HA + PULSE .2% V/V at RC, MRU and LRU
Experimental: as §1, §2
as §3, with “Manager.” for “Manager. Significant differences (P=0.05) between treatments are denoted by different lower case letters adjacent to treatment means in the tables of results.”
Trial to evaluate applications of triasulfuron, mesosulfuron-methyl and metsulfuron-methyl, in a morphine crop. […] Plant heights were measured 5 weeks after last application and lodging at capsule harvest.

[8] = measured at green capsule stage

COC(=O)c1ccccc1S(=O)(=O)NC(=O)Nc1nc(C)nc(OC)n1 [Compound 1, metsulfuron-methyl]
CAPSULE/SEED RATIO [1]: 0.883 a | MORPHINE [1]: 26.32 c kg/ha | PLANT HEIGHT [1]: 67 c cm | SEED [1]: 1015 b kg/ha | STRAW [1]: 1255 c kg/ha | STRAW MORPHINE [1]: 2.09 b % | YIELD [1]: 2.27 c t/ha | CAPSULE/SEED RATIO [2]: 0.984 ab | CROP WEIGHT [2]: 1.52 ab t/ha | MORPHINE [2]: 20.88 a kg/ha | SEED [2]: 640 c kg/ha | STRAW [2]: 884 ab kg/ha | STRAW MORPHINE [2]: 2.36 a % | PLANT HEIGHT [2, 8]: 101.0 a cm | CAPSULE/SEED RATIO [3]: 0.978 a | CROP WEIGHT [3]: 2.30 b t/ha | MORPHINE [3]: 31.32 a kg/ha | SEED [3]: 955 c kg/ha | STRAW [3]: 1349 a kg/ha | STRAW MORPHINE [3]: 2.32 a % | PLANT HEIGHT ([3]; measured at early green capsule stage): 82.6 a cm | CAPSULE/SEED RATIO [4]: 3.844 a | CROP WEIGHT [4]: 2.67 b t/ha | MORPHINE [4]: 43.94 a kg/ha | SEED [4]: 468 b kg/ha | STRAW [4]: 2206 a kg/ha | STRAW MORPHINE [4]: 2.04 a % | LODGING ([4]; assessed on the day of capsule harvest): 2.3 c % | HEIGHT [4, 8]: 94.5 ab cm | CAPSULE/SEED RATIO [5]: 11.957 a | CROP WEIGHT [5]: 1.86 a t/ha | HEIGHT [5]: 84.2 b cm | MORPHINE [5]: 39.63 a kg/ha | SEED [5]: 105 c kg/ha | STRAW [5]: 1757 a kg/ha | STRAW MORPHINE [5]: 2.25 a % | CAPSULE/SEED RATIO [6]: 8.488 a | CROP WEIGHT [6]: 3.22 d t/ha | LODGING [6]: 1.2 b % | MORPHINE [6]: 60.39 a kg/ha | SEED [6]: 267 c kg/ha | STRAW [6]: 2955 a kg/ha | STRAW MORPHINE [6]: 2.04 a % | HEIGHT ([6]; height at green capsule stage): 99.2 a cm | CAPS/SEED RATIO [7]: 2.543 a | CROP WEIGHT [7]: 2.87 b t/ha | MORPHINE [7]: 46.52 b kg/ha | SEED [7]: 643 c kg/ha | STRAW [7]: 2186 a kg/ha | STRAW MORPHINE [7]: 2.13 c % | PLANT HEIGHT ([7]; 5 weeks after last application): 88.0 cm·days | LODGING ([7]; at capsule harvest): 1.8 a %
